{
  "source": "patent US20240376138A1",
  "about": "“Crystal Forms, Preparation Method And Application Of Aryl Phosphine Oxide Compound” (Chengdu Di'Ao Jiuhong Pharmaceutical Factory, priority 2021, published 2024)",
  "key": {"[1]": {"biological_target": "Ba/F3 cells expressing EGFR-T790M/Del19 (Homo sapiens, UniProt P00533, T790M, cells depend on it, form not given)", "test": "Cell anti-proliferation experiment 1, BaF3 cells expressing EGFR mutation (CellTiter-Glo)", "type": "cell-based", "conditions": "3 days, CTG, read-out: EGFR-T790M/Del19 IC50"}, "[2]": {"biological_target": "Ba/F3 cells expressing EGFR-C797S/Del19 (Homo sapiens, UniProt P00533, C797S, cells depend on it, form not given)", "sequence (P00533 with tags, fused parts or gaps DEL746-750/C797S, form open)": "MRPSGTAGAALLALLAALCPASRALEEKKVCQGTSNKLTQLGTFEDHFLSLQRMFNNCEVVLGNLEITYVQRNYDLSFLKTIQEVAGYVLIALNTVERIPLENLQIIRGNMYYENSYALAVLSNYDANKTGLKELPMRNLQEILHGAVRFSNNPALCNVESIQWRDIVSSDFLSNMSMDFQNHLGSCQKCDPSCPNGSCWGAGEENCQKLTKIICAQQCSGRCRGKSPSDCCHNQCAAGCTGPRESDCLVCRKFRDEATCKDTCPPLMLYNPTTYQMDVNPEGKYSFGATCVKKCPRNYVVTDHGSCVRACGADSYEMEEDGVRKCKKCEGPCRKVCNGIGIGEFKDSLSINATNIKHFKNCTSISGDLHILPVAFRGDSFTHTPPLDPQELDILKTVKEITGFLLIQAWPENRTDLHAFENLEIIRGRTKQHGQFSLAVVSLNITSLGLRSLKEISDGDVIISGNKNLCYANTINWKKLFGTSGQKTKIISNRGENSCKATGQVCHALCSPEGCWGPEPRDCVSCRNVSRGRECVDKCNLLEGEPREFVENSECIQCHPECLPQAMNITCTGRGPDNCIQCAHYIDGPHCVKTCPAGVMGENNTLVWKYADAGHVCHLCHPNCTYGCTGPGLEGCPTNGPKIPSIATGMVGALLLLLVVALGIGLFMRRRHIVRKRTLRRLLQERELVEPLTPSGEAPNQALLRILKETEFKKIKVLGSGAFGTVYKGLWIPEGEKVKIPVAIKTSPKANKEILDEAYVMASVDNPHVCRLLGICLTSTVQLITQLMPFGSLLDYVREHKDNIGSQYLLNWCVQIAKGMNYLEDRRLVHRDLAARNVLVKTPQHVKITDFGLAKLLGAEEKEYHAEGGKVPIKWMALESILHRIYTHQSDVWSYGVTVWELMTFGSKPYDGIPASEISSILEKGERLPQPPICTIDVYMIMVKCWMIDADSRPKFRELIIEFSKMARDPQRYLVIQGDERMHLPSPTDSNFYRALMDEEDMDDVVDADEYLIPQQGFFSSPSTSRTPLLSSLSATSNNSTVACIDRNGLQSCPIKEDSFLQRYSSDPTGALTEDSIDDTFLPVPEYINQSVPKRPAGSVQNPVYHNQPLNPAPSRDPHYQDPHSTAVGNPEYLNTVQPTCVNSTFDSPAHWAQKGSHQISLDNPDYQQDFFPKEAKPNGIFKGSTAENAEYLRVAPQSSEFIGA", "test": "Cell anti-proliferation experiment 1, BaF3 cells expressing EGFR mutation (CellTiter-Glo)", "type": "cell-based", "conditions": "3 days, CTG, read-out: EGFR-C797S-Del19 IC50"}, "[3]": {"biological_target": "Ba/F3 cells expressing EGFR-T790M/L858R (Homo sapiens, UniProt P00533, T790M/L858R, cells depend on it)", "test": "Cell anti-proliferation experiment 1, BaF3 cells expressing EGFR mutation (CellTiter-Glo)", "type": "cell-based", "conditions": "3 days, CTG, read-out: EGFR-T790M/L858R IC50", "procedure": "(§6) Test purpose: to detect the effect of the test compounds on the proliferation of cell lines containing EGFR mutations in BaF3 cells • 2. Test information: • 2.1. Cell information: Cell lines containing EGFR mutations in BaF3 were from WuXiAppTec: • BaF3-cell lines expressing EGFR mutation • EGFR-T790M/Del19 • EGFR-C797S/Del19 • EGFR-T790M/L858R • EGFR-C797S/L858R • EGFR-C797S/T790M/L858R • EGFR-C797S/T790M/Del19 • EGFR-WT wild-type cell lines • 2.2. Test method • Day 0: Cells were seeded in a plate. • a. An ultraviolet lamp of a biological safety cabinet was turned on and countdown was started for 30 minutes. • b. A medium was preheated in a 37° C. water bath. • c. After the ultraviolet irradiation was finished, the biological safety cabinet was opened. […] The cells were removed from an incubator, blown to a uniform cell suspension in the biological safety cabinet and counted. • e. […] The IC50 of each compound was calculated by computer fitting with XL-Fit analysis software (the IC50 of the compound on the cell activity inhibition could be obtained by reading the concentrations of the corresponding compounds at 500 inhibition rate). Inhibition rate % C (reading value of the control group without drug−reading value of the sample)/reading value of the control group without drug×100. • 3."}, "[4]": {"biological_target": "Ba/F3 cells expressing EGFR-C797S/L858R (Homo sapiens, UniProt P00533, C797S/L858R, cells depend on it)", "test": "Cell anti-proliferation experiment 1, BaF3 cells expressing EGFR mutation (CellTiter-Glo)", "type": "cell-based", "conditions": "3 days, CTG, read-out: EGFR-C797S/L858R IC50", "procedure": "as §6"}, "[5]": {"biological_target": "Ba/F3 cells expressing EGFR-C797S/T790M/L858R (Homo sapiens, UniProt P00533, T790M/C797S/L858R, cells depend on it)", "test": "Cell anti-proliferation experiment 1, BaF3 cells expressing EGFR mutation (CellTiter-Glo)", "type": "cell-based", "conditions": "read-out: EGFR-C797S/T790M/L858R IC50", "procedure": "(§7) Test purpose: to detect the effect of the test compounds on the proliferation of cell lines containing EGFR mutations in BaF3 cells • 2. […] Cell information: Cell lines containing EGFR mutations in BaF3 were from WuXiAppTec: • BaF3-cell lines expressing EGFR mutation • EGFR-T790M/Del19 • EGFR-C797S/Del19 • EGFR-T790M/L858R • EGFR-C797S/L858R • EGFR-C797S/T790M/L858R • EGFR-C797S/T790M/Del19 • EGFR-WT wild-type cell lines • 2.2. Test method • Day 0: Cells were seeded in a plate. • a. An ultraviolet lamp of a biological safety cabinet was turned on and countdown was started for 30 minutes. • b. A medium was preheated in a 37° C. water bath. • c. After the ultraviolet irradiation was finished, the biological safety cabinet was opened. The pre-heated medium, PBS, and the like, were wiped with alcohol and placed in the biological safety cabinet. • d. The cells were removed from an incubator, blown to a uniform cell suspension in the biological safety cabinet and counted. • e. Based on the cell counting results, the cell suspension was adjusted to a density of 3,000 cells per well and 50 microliters per well, and seeded in 384-well plates. • f. The cells after seeding were incubated in a 5% CO2 incubator at 37° C. for 3 hours. • g. Compounds were added to the cell plates using Tecan (liquid workstation). • Day 3: the cell plate added with the compounds and CTG (CellTiter-Glo chemiluminescence cell activity assay reagent) were equilibrated at room temperature, 25 μl of CTG was added to each well, centrifuged at 1,000 rpm for 1 minute, and shaken for 1-2 minutes. And centrifuging for 1 minute at 1,000 rpm again, the cell plates were allowed to settle for 10 minutes to detect a signal value in Envision. The IC50 of each compound was calculated by computer fitting with XL-Fit analysis software (the IC50 of the compound on the cell activity inhibition could be obtained by reading the concentrations of the corresponding compounds at 500 inhibition rate). Inhibition rate % C (reading value of the control group without drug−reading value of the sample)/reading value of the control group without drug×100. • 3."}, "[6]": {"biological_target": "Ba/F3 cells expressing EGFR-C797S/T790M/Del19 (Homo sapiens, UniProt P00533, T790M/C797S, cells depend on it, form not given)", "test": "Cell anti-proliferation experiment 1, BaF3 cells expressing EGFR mutation (CellTiter-Glo)", "type": "cell-based", "conditions": "read-out: EGFR-C797S/T790M/Del19 IC50"}, "[7]": {"biological_target": "Ba/F3 cells expressing EGFR-WT (Homo sapiens, UniProt P00533)", "sequence (P00533 whole entry, change not shown)": "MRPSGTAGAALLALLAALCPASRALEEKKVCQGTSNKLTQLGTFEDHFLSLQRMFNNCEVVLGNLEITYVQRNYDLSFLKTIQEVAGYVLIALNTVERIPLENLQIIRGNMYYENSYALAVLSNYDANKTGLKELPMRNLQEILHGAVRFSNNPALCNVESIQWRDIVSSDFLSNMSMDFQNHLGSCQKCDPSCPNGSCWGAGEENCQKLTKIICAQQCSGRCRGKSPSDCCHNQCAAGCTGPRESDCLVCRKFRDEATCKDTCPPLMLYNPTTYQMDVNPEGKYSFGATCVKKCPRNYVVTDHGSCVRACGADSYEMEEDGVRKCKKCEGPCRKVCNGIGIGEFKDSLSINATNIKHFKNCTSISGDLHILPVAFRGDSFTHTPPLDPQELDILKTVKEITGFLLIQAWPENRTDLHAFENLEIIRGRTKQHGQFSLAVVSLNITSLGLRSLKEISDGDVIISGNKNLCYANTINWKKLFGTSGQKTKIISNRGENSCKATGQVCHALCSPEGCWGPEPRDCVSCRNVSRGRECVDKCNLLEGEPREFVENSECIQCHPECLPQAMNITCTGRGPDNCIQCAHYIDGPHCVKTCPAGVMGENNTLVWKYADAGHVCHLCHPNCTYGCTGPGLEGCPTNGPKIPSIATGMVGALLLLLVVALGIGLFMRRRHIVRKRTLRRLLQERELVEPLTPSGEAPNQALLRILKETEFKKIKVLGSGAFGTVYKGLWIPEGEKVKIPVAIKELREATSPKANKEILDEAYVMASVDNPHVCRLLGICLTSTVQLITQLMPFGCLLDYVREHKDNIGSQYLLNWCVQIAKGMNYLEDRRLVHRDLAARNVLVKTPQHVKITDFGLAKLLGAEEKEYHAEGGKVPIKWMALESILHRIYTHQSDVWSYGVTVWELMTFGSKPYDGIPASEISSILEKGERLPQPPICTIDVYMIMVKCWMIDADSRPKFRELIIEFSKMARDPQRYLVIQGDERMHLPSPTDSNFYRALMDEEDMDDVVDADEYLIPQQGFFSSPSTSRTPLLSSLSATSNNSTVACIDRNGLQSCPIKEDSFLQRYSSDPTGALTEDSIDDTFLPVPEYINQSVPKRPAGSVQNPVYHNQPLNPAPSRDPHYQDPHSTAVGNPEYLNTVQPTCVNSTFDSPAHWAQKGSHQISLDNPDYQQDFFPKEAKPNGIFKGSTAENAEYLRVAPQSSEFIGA", "test": "Cell anti-proliferation experiment 1, BaF3 EGFR-WT wild-type cell line (CellTiter-Glo)", "type": "cell-based", "conditions": "read-out: EGFR-WT IC50", "procedure": "as §7"}, "[8]": {"system": "PC9 cells expressing EGFR-C797S/T790M/Del19", "test": "Cell anti-proliferation experiment 2, PC9 cells (SRB)", "type": "cell-based", "conditions": "Homo sapiens, PC-9, 72 h, read-out: EGFR-C797S/T790M/Del19 GI50", "method": "(§1) • 1. […] Test information: • 2.1. Cell information: PC9 cells carried EGFR Del19 mutation, and the rest of mutant cells were constructed from PC9 cells according to the conventional stable cell strain construction method. • PC9-cell lines expressing EGFR mutation • EGFR-Del19 • EGFR-T790M/Del19 • EGFR-C797S/T790M/Del19 • 2.2. Test method:\n(§2) The test compounds were diluted by 5 times each time with an appropriate concentration as an initial concentration of the test, and totally diluted into 6 concentration gradients. […] SRB (Sulforhodamine B) detection method was used, and the optical density value of each well was read by a microplate reader at 490 nm wavelength.\n(§3) The optical density of the cells at the drug action of 0 was set as a Tz value representing the value of the cells at the time that the drug was added. The optical density value of the cells after the solvent control DMSO acted for 72 hours was set as a C value. The optical density of the cells on which the test compounds acted for 72 hours was set as a Ti value. The response of the cells to the drug was calculated according to a method proposed by the U.S. NIH-NCI (National Institutes of Health-National Institute of Cancer): When Ti is more than or equal to Tz, the value was [(Ti−Tz)/(C−Tz)]×100; and when Ti is less than Tz, the value was [(Ti−Tz)/Tz]×100."}, "[9]": {"system": "PC9 cells expressing EGFR-Del19", "test": "Cell anti-proliferation experiment 2, PC9 cells (SRB)", "type": "cell-based", "conditions": "Homo sapiens, PC-9, 72 h, read-out: EGFR-Del 19 GI50", "method": "as §1, §2, §3"}, "[10]": {"system": "PC9 cells expressing EGFR-T790M/Del19", "test": "Cell anti-proliferation experiment 2, PC9 cells (SRB)", "type": "cell-based", "conditions": "Homo sapiens, PC-9, 72 h, read-out: EGFR-T790M/Del19 GI50", "method": "as §1, §2, §3"}, "[11]": {"biological_target": "T1, BaF3 cells expressing EML-4-ALK-WT (Homo sapiens, UniProt Q9UM73)", "T1 construct": "fused on or other part: Q9HC35 (Echinoderm microtubule-associated protein-like 4)", "T1 sequence (Q9UM73 whole entry, change not shown, the tested form may be a part)": "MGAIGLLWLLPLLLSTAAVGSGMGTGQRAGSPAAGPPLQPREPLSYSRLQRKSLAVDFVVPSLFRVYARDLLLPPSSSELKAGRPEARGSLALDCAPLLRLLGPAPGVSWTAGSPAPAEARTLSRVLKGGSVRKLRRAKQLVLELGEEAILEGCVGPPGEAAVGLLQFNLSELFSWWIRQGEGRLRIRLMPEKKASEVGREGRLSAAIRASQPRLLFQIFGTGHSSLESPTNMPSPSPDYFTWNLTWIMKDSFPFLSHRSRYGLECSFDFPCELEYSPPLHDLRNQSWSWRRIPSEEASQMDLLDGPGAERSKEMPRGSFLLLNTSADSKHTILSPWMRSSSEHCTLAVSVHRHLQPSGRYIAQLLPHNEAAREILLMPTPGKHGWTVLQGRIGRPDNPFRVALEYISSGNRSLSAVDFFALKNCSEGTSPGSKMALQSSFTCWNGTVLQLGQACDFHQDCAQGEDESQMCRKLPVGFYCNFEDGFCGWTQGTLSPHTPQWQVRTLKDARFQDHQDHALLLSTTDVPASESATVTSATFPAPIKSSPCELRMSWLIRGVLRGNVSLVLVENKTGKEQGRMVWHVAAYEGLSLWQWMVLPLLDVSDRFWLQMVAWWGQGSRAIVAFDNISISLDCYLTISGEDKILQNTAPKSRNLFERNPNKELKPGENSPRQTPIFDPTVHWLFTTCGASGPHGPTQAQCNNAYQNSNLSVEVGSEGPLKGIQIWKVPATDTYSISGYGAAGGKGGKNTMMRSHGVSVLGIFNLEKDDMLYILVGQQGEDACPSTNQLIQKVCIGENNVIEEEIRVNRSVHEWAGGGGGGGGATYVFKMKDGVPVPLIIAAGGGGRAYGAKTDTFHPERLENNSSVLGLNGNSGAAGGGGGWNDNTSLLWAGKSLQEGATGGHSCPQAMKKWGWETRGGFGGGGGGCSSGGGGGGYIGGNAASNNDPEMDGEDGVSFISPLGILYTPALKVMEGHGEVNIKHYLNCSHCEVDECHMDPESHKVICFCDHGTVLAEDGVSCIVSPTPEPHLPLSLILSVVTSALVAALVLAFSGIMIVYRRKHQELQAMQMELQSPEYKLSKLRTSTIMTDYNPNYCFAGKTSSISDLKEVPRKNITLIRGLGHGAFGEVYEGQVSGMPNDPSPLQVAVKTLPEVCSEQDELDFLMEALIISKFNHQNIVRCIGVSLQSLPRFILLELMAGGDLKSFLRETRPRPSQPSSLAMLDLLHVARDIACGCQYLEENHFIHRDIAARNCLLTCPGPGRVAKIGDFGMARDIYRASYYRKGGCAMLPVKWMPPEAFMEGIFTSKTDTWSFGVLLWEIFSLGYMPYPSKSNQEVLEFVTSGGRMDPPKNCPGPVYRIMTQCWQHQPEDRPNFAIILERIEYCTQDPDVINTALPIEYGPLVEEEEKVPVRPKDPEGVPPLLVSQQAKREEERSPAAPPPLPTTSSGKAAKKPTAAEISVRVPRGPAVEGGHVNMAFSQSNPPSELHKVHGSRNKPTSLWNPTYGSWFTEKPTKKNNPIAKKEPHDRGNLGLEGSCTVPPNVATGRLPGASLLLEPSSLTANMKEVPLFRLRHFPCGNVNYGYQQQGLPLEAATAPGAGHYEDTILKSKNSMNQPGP", "test": "Cell anti-proliferation experiment 3, BaF3 cells with ALK fusion (CellTiter-Glo)", "type": "cell-based", "conditions": "3 days, CTG, read-out: EML-4-ALK-WT IC50", "description": "(§4) • 1. […] Test information: • 2.1. Cell information: Cell lines containing ALK mutations in BaF3 were from WuXiAppTec: • Ba/F3-cell lines expressing ALK gene fusion and mutation • Ba/F3-EML-4-ALK-WT • Ba/F3-EML-4-ALK-L 1196M • 2.2.\n(§5) Test results: The IC50 values of the compound DA and the control compound against BaF3 cells expressing EML-4-ALK-WT and EML-4-ALK-L1196M are shown in Table 22. • 4."}, "[12]": {"biological_target": "T2, BaF3 cells expressing EML-4-ALK-L1196M (Homo sapiens, UniProt Q9UM73, L1196M, cells depend on it)", "T2 construct": "fused on or other part: Q9HC35 (Echinoderm microtubule-associated protein-like 4)", "T2 sequence (Q9UM73 whole entry L1196M, the tested form may be a part)": "as the sequence (Q9UM73 whole entry, change not shown, the tested form may be a part) above, with L1196M counted along it", "test": "Cell anti-proliferation experiment 3, BaF3 cells with ALK fusion and mutation (CellTiter-Glo)", "type": "cell-based", "conditions": "3 days, CTG, read-out: EML-4-ALK-L1196M IC50", "description": "as §4, §5"}, "[13]": {"biological_target": "T3, BaF3 EML-4-ALK-L1196M cell line (Homo sapiens, UniProt Q9UM73, L1196M, cells depend on it)", "T3 construct": "fused on or other part: Q9HC35 (Echinoderm microtubule-associated protein-like 4)", "T3 sequence (Q9UM73 whole entry L1196M, the tested form may be a part)": "as the sequence (Q9UM73 whole entry, change not shown, the tested form may be a part) above, with L1196M counted along it", "test": "Cell anti-proliferation experiment 4 (CCK-8)", "type": "cell-based", "conditions": "BaF3 EML-4-ALK-L1196M cells, 72 hours", "method": "• 1. […] Test materials • BaF3 EML-4-ALK-L1196M cell line, brand: KYinno, article number: KC-0102 • Cell Counting Kit-8 (CCK-8), brand: Targetmol, article number: C0005 • Multifunctional microplate reader, POLARstar Omega, brand: BMG LABTECH • 3. […] 10 μL of the compound diluted in gradient was added to the cell plate to give final concentrations of the compounds as 500, 166.67, 55.56, 18.52, 6.17, 2.06, 0.69, 0.23 and 0.08 nM. • d. […] Test results: The IC50 values of compound DA and compound 1 in the patent application WO2021073498A1 against BaF3 cells expressing EML-4-ALK-L1196M are shown in Table 23."}, "[14]": {"test": "Comparative experiment of hygroscopicity (Chinese Pharmacopoeia 2020)", "type": "physicochemical", "description": "The description of hygroscopic characteristics and the definition of hygroscopic weight gain are as follows: • Deliquescence: absorbs sufficient amount of water to form a liquid; • Very hygroscopic: the weight gain by hygroscopy is not less than 15%; • Hygroscopic: the weight gain by hygroscopy is less than 15% but not less than 2%; • Slightly hygroscopic: the weight gain by hygroscopy is less than 2% but not less than 0.2%; and\nNot or almost not hygroscopic: the weight gain by hygroscopy is less than 0.2% from hygroscopicity."}, "Solubility test": {"test": "Solubility test", "type": "physicochemical", "conditions": "Solution with pH = 6.8, 25° C.±2° C."}},
  "note": "Read-outs that look alike come from different tables or passages of the source.",
  "data": [
    {"compound": "COc1cc(N2CCC(N3CCN(C)CC3)CC2)c(C)cc1Nc1ncc(Br)c(Nc2ccc(C)cc2P(C)(C)=O)n1", "note": "[Compound DA, (2-((5-Bromo-2-((2-methoxy-5-methyl-4-(4-(4-methylpiperazin-1-yl)piperidin-1-yl)phenyl)amino)pyrimidin-4-yl)amino)-5-methylphenyl)dimethylphosphorus oxide]", "values": [
      {"measurement": "GI50", "setting": "[1]", "result": 6.5, "unit": "nM"},
      {"measurement": "GI50", "setting": "[2]", "result": 48.1, "unit": "nM"},
      {"measurement": "GI50", "setting": "[3]", "result": 22.5, "unit": "nM"},
      {"measurement": "GI50", "setting": "[4]", "result": 32.6, "unit": "nM"},
      {"measurement": "GI50", "setting": "[5]", "result": 64.1, "unit": "nM"},
      {"measurement": "GI50", "setting": "[6]", "result": 16.5, "unit": "nM"},
      {"measurement": "GI50", "setting": "[7]", "result": 1260, "unit": "nM"},
      {"measurement": "GI50", "setting": "[8]", "result": 15.6, "unit": "nM"},
      {"measurement": "GI50", "setting": "[9]", "result": 48.4, "unit": "nM"},
      {"measurement": "GI50", "setting": "[10]", "result": 12.8, "unit": "nM"},
      {"measurement": "GI50", "setting": "[11]", "result": 8, "unit": "nM"},
      {"measurement": "GI50", "setting": "[12]", "result": 13.1, "unit": "nM"},
      {"measurement": "GI50", "setting": "[13]; CCK-8, first test, read-out: IC50 in the first test", "result": 15.1, "unit": "nM"},
      {"measurement": "GI50", "setting": "[13]; CCK-8, second test, read-out: IC50 in the second test", "result": 10.4, "unit": "nM"},
      {"measurement": "Hygroscopicity", "setting": "[14]; class by weight gain after 24 h", "result": "Hygroscopic (the weight gain by hygroscopy is less than 15% but not less than 2%)"},
      {"measurement": "Weight gain % after 24 h", "setting": "[14]; hygroscopicity test, 24 h", "result": 3.78, "unit": "%"},
      {"measurement": "Solubility for 24 h", "setting": "Solubility test", "result": 2110, "unit": "µg/mL"}
    ]}
  ]
}
